Key:
γ-secretase [1] = molecular target: T1, γ-secretase (Homo sapiens, UniProt P49768); assay: Screening for γ-secretase-modulating activity: Aβ42 in cell supernatant (Alphalisa sandwich immuno-assay); assay type: cell-based; conditions: SKNBE2 human neuroblastoma cells carrying hAPP 695-wild type, overnight incubation
T1 construct: endogenous in cells; host or cells: SKNBE2 human neuroblastoma cells carrying hAPP 695 wild type
Method: (§1) A) Screening of the Compounds of the Invention for γ-Secretase-Modulating Activity
(§2) Screening was carried out using SKNBE2 human neuroblastoma cells carrying the hAPP 695-wild type, grown in Dulbecco's Modified Eagle's Medium/Nutrient mixture F-12 (DMEM/NUT-mix F-12) (HAM) provided by Invitrogen (cat no. 10371-029) containing 5% Serum/Fe supplemented with 1% non-essential amino acids, 1-glutamine 2 mM, Hepes 15 mM, penicillin 50 U/ml (units/ml) and streptomycin 50 μg/ml. Cells were grown to near confluency.
(§3) The screening was performed using a modification of the assay as described in Citron et al (1997) Nature Medicine 3: 67. Briefly, cells were plated in a 384-well plate at 10^4 cells/well in Ultraculture (Lonza, BE12-725F) supplemented with 1% glutamine (Invitrogen, 25030-024), 1% non-essential amino acid (NEAA), penicillin 50 U/ml en streptomycin 50 μg/ml in the presence of test compound at different test concentrations. The cell/compound mixture was incubated overnight at 37° C., 5% CO2. The next day the media were assayed by two sandwich immuno-assays, for Aβ42 and Aβtotal.
(§4) Aβtotal and Aβ42 concentrations were quantified in the cell supernatant using the Aphalisa technology (Perkin Elmer). Alphalisa is a sandwich assay using biotinylated antibody attached to streptavidin coated donorbeads and antibody conjugated to acceptor beads. In the presence of antigen, the beads come into close proximity. The excitation of the donor beads provokes the release of singlet oxygen molecules that trigger a cascade of energy transfer in the acceptor beads, resulting in light emission. To quantify the amount of Aβ42 in the cell supernatant, monoclonal antibody specific to the C-terminus of Aβ42 (JRF/cAβ42/26) was coupled to the receptor beads and biotinylated antibody specific to the N-terminus of Aβ (JRF/AβN/25) was used to react with the donor beads. To quantify the amount of Aβtotal in the cell supernatant, monoclonal antibody specific to the N-terminus of Aβ (JRF/AβN/25) was coupled to the receptor beads and biotinylated antibody specific to the mid region of Aβ (biotinylated 4G8) was used to react with the donor beads.
To obtain the values reported in Table 3, the data are calculated as percentage of the maximum amount of amyloid Beta 42 measured in the absence of the test compound.
(§5) The sigmoidal dose response curves were analyzed using non-linear regression analysis with percentage of the control plotted against the log concentration of the compound. A 4-parameter equation was used to determine the IC50.

γ-secretase [2] = molecular target: T1, γ-secretase; assay: Screening for γ-secretase-modulating activity: Aβtotal in cell supernatant (Alphalisa sandwich immuno-assay); assay type: cell-based; conditions: SKNBE2 human neuroblastoma cells carrying hAPP 695-wild type, overnight incubation
Method: as §1, §2, §3, §4, §5

Cc1cn(-c2ccc3n(c2=O)C[C@@H]2CC[C@@H](Cc4cc(C(F)(F)F)cc(C(F)(F)F)c4)N2C3=O)cn1 (single isomer, unassigned) [Compound 4, 3-[[3,5-bis(trifluoromethyl)phenyl]methyl]-2,3,11,11a-tetrahydro-8-(4-methyl-1H-imidazol-1-yl)-1H-pyrido[1,2-a]pyrrolo[1,2-d]pyrazine-5,9-dione ((3S, 11aS) or (3R, 11aR))]
IC50 (γ-secretase [1]): 50 nM
IC50 (γ-secretase [2]): > 10000 nM

Reference: patent US10112943B2, “Substituted imidazoles as gamma secretase modulators” (Janssen Pharmaceutica NV, priority 2012, dated 2018)
